We go through two compounds from paper PMC10406726, “Development, scrutiny, and modulation of transient reporter gene assays of the xenobiotic metabolism pathway in zebrafish hepatocytes” (Cell Biology and Toxicology, 2021).

Like-named read-outs stand apart in the source and are kept apart here.

The target in data set [1] is VDR (vitamin D (1,25-dihydroxyvitamin D3) receptor). Also noted: method as in ToxCast database, CompTox dashboard. As to conditions: ATG_VDRE_CIS_up; ref ToxCast database, CompTox dashboard; cited from earlier work.
The target of data set [2] is ESR1 (estrogen receptor 1). Further details: method as in ToxCast database, CompTox dashboard. As to conditions: ATG_ERa_TRANS_up; ref ToxCast database, CompTox dashboard; cited from earlier work.
The target in data set [3] is ESRRA (estrogen-related receptor alpha). Further details: method as in ToxCast database, CompTox dashboard. To be noted: TOX21_PGC_ERR_Agonist; ref ToxCast database, CompTox dashboard; cited from earlier work.
The test system of a further data set is ARE (channel 1). Also noted: method as in ToxCast database, CompTox dashboard. As to conditions: TOX21_ARE_BLA_Agonist_ch1; ref ToxCast database, CompTox dashboard; cited from earlier work.
Data set [4] has as its system NFE2L2 (nuclear factor, erythroid 2-like 2). Further details: method as in ToxCast database, CompTox dashboard. As to conditions: ATG_NRF2_ARE_CIS_up; ref ToxCast database, CompTox dashboard; cited from earlier work.
In data set [5] the target is ESR1 (estrogen receptor 1). Further details: method as in ToxCast database, CompTox dashboard. To be noted: TOX21_ERa_LUC_VM7_Agonist; ref ToxCast database, CompTox dashboard; cited from earlier work.
Data set [6] concerns NFE2L2 (nuclear factor, erythroid 2-like 2). Further details: method as in ToxCast database, CompTox dashboard. To be noted: TOX21_ARE_BLA_agonist_ratio; ref ToxCast database, CompTox dashboard; cited from earlier work.
In data set [7] the target is AR (androgen receptor). Also noted: method as in ToxCast database, CompTox dashboard. As to conditions: TOX21_AR_LUC_MDAKB2_Agonist_3uM_Nilutamide; ref ToxCast database, CompTox dashboard; cited from earlier work.
For data set [8], the system named is NR1I3 (nuclear receptor subfamily 1, group I, member 3). Further details: method as in ToxCast database, CompTox dashboard. To be noted: TOX21_CAR_Agonist; ref ToxCast database, CompTox dashboard; cited from earlier work.
The nature of data set [9]: Optical inspection under the microscope for crystalized aggregates in exposure medium. The class given is physicochemical. As to conditions: BNF in exposure medium, ZFL cell culture. The source says: TOX21_ARE_BLA_agonist_ratio NFE2L2 nuclear factor, 0.985 DNA binding
ATG_ERE_CIS_up ESR1 estrogen receptor 1 1.06 nuclear receptor
TOX21_ARE_BLA_Agonist_ch2 – – 1.22 channel 2
ATG_PXRE_CIS_up NR1I2 nuclear receptor 2.24 nuclear receptor
ATG_ERa_TRANS_up ESR1 estrogen receptor 1 2.86 nuclear receptor
TOX21_AR_LUC_MDAKB2_Ago AR androgen receptor 3.69 nuclear receptor
ATG_VDRE_CIS_up VDR vitamin D (1,25- 4.28 nuclear receptor
TOX21_AhR_LUC_Agonist AHR aryl hydrocarbon 4.44 DNA binding
TOX21_ERa_LUC_VM7_Agonist ESR1 estrogen receptor 1 5.15 nuclear receptor
TOX21_AR_LUC_MDAKB2_Ago AR androgen receptor 5.43 nuclear receptor
TOX21_CAR_Agonist NR1I3 nuclear receptor 6.07 nuclear receptor
ATG_PXR_TRANS_up NR1I2 nuclear receptor 6.58 nuclear receptor
132 To undermine the “maisonette” squelching hypothesis, Comptox data regarding the induction of cellular
133 stress response pathways were backed up by empirical data in ZFL cell lines. Therefore, ZFL cells were
134 transiently co-transfected with the Nrf2-responsive reporter vector pGL4.37 and the normalization
135 vector pRL-CMV, as described in (Lungu-Mitea and Lundqvist 2020). Experimental design, data
136 handling, and statistical evaluation were identical to procedures described in the main manuscript. The
137 transcription factor Nrf2 is a central regulator of the oxidative stress response pathways […]

The test system of the next data set is HEK293 (cell cycle). Further details: method as in ToxCast database, CompTox dashboard. To be noted: TOX21_RT_HEK293_FLO_40hr_viability; ref ToxCast database, CompTox dashboard; cited from earlier work.
For data set [10], the target named is ESRRA (estrogen-related receptor alpha). Also noted: method as in ToxCast database, CompTox dashboard. To be noted: TOX21_ERR_Agonist; ref ToxCast database, CompTox dashboard; cited from earlier work.
The next data set addresses GLI3 (DNA binding). Also noted: method as in ToxCast database, CompTox dashboard. To be noted: TOX21_SSH_3T3_GLI3_Agonist; ref ToxCast database, CompTox dashboard; cited from earlier work.
Data set [11] concerns the target ATAD5 (ATPase family, AAA domain containing 5). Further details: method as in ToxCast database, CompTox dashboard. As to conditions: TOX21_ELG1_LUC_Agonist; ref ToxCast database, CompTox dashboard; cited from earlier work.
In data set [12] the test system is NR1I2 (nuclear receptor subfamily 1, group I, member 2). Further details: method as in ToxCast database, CompTox dashboard. As to conditions: ATG_PXR_TRANS_up; ref ToxCast database, CompTox dashboard; cited from earlier work.
In data set [13] the target is AR (androgen receptor). Also noted: method as in ToxCast database, CompTox dashboard. As to conditions: TOX21_AR_LUC_MDAKB2_Agonist; ref ToxCast database, CompTox dashboard; cited from earlier work.
Another data set concerns ZFL cells. Further details: method as in Eknefelt [2018]. As to conditions: TCDD; same cellular context, identical exposure concentrations; ref Eknefelt [2018]; cited from earlier work.

As a reminder, the AC50 is the concentration at which the activity in the assay is half-maximal.

Take `O=c1cc(-c2ccccc2)oc2ccc3ccccc3c12` [BNF, β-naphthoflavone]: the AC50 was 4.28 µM in data set [1]; 2.86 µM in data set [2]; 0.189 µM in data set [3]; 0.837 µM in the data set with ARE (channel 1); 0.157 µM in data set [4]; 5.15 µM in data set [5]. The AC50 in [6] was 0.985 µM; on AR (androgen receptor) [7] it was 3.69 µM; in data set [8], 6.07 µM; in the data set on HEK293 (cell cycle) it was 5.05 µM; in [10], 0.0672 µM; at GLI3 (DNA binding), 0.0339 µM. In addition, the AC50 is 0.0474 µM in data set [11], 6.58 µM in data set [12] and 5.43 µM on AR (androgen receptor) [13]. Also, the “concentration above which crystalized aggregates were encountered” value in [9] is recorded as “above 10 µM”.

For `Clc1cc2c(cc1Cl)Oc1cc(Cl)c(Cl)cc1O2` [TCDD, 2,3,7,8-tetrachlorodibenzo-p-dioxin], in the data set with ZFL cells, the “cytotoxicity, historical data” value is “no TCDD-induced cytotoxicity”.
